“And” between values parts separate entries of the source, which are not always exact repeats. Identical values can stand only once.
Legend:
[1] = Biotransformation in zebrafish embryos (cysteine conjugates, LC/MS); format: in vivo; details: 5 μM in incubation medium, 8 hpf to 24 hpf
Description: Fifty zebrafish embryos at the 8 hour-post-fertilization (hpf) stage were incubated at 28.5° C. in 0.3× Danieau's solution (19.3 mM NaCl, 0.23 mM KCl, 0.13 mM MgSO4, 0.2 mM Ca(NO3)2, 1.7 mM HEPES, pH 7.0) with or without 5 μM 18 and 25-27, respectively. At 24 hpf, embryos were dechorionated manually and the chorions were carefully removed one by one from the culture medium. The zebrafish embryos were harvested and kept at −80° C. till analyzed by LC/MS.
200 μL Sodium acetate buffer solution (pH 5.0) was added to 50 zebrafish embryos. Samples were homogenized for 90 s by an Omni Bead Ruptor Homogenizer (Kennesaw, Ga., United States of America). 10 μL 10% ascorbic acid and 300 μL sodium acetate buffer were added to the homogenates. The mixture was incubated in the presence of β-glucuronidase (250 U) and sulfatase (3 U) at 37° C. for 45 min, and then 600 μL MeOH with 1% acetic acid was added. The resulting mixture was vortexed for 30 s and then centrifuged at 17000 g for 10 min. The supernatant was removed and evaporated under a gentle stream of nitrogen. The residue was reconstituted in 150 μL 90% MeOH with 0.2% acetic acid (AA), and 10 μL was analyzed directly by LC/MS.
LC/MS analysis was carried out with a Thermo-Finnigan Spectra System, which consisted of an Accela high speed MS pump, an Accela refrigerated autosampler, and an LCQ Fleet ion trap mass detector (Thermo Electron, San Jose, Calif., United States of America) incorporated with an electrospray ionization (ESI) interface. A Gemini-NX C18 column (150 mm×4.6 mm i.d., 5 μm; Phenomenex, Torrance, Calif., United States of America) was used for separation at a flow rate of 0.3 mL/min. The column was eluted with 100% A (5% aqueous methanol with 0.2% formic acid) for 1 min, followed by linear increases in B (95% aqueous methanol with 0.2% formic acid) to 55% from 1 to 4 min, to 85% from 4 to 25 min, then to 100% B from 25 to 30 min, and then with 100% B from 30 to 35 min. The column was then re-equilibrated with 100% A for 5 min. The LC eluent was introduced into the ESI interface. The positive ion polarity mode was set for the ESI source with the voltage on the ESI interface maintained at approximately 4.6 kV. Nitrogen gas was used as the sheath gas and auxiliary gas. Optimized source parameters, including capillary temperature (260° C.), sheath gas flow rate (31 arbitrary units), auxiliary gas flow rate (16 units), tube lens (34 V), and capillary voltage 9 V, were tuned using authentic samples. The collision-induced dissociation (CID) was conducted with an isolation width 2 Da and normalized collision energy of 35 for MS^2. The mass range was measured from 100 to 800 m/z. Data acquisition was performed with Xcalibur version 2.0 (Thermo Electron, San Jose, Calif., United States of America).

[2] = tested on: human colon cancer cells HT-29; test: MTT growth inhibition, HT-29; format: cell-based; details: 24 hours
Description: (§1) Cell viability was determined by an MTT colorimetric assay. Briefly, human colon cancer cells HCT-116 or HT-29, were plated in 96-well microtiter plates with 3000 cells/well and allowed to attach for 24 hours at 37° C. and 5% CO2. The test compounds (in DMSO) were added to cell culture medium to desired final concentrations (final DMSO concentrations for control and treatments were 0.1%). After the cells were cultured for 24 hours, the medium was aspirated and cells were treated with 200 μL fresh medium containing 2.41 mmol/L MTT. After incubation for 3 hours at 37° C., the medium containing MTT was aspirated, 100 μL of DMSO was added to solubilize the formazan precipitate, and the plates were shaken gently for an hour at room temperature. Absorbance values were derived from the plate reading at 550 nm on a Biotek (Winooski, Vt., United States of America) microtiter plate reader. The reading reflected the number of viable cells and was expressed as a percentage of viable cells in the control. CCD-18Co cells were grown in EMEM. Both HCT-116 and HT-29 cells were cultured in McCoy's 5A medium. All of the above media were supplemented with 10% fetal bovine serum, 1% penicillin/streptomycin, and 1% glutamine, and the cells were kept in a 37° C. incubator with 95% humidity and 5% CO2.

Nrf2 = Nrf2 reporter activity by Tg(gstp1:GFP) fluorescence in transgenic zebrafish embryos; format: in vivo; details: 5 μM, 24-hour treatment from 1 dpf to 2 dpf; olfactory epithelia; relative to vehicle (DMSO = 1.00)
Description: Zebrafish AB transgenic strains Tg(gstp1:GFP) were maintained in a Pentair Aquatic Ecosystem (Apopka, Fla., United States of America) fish housing unit with 14 h light/10 h dark cycle (see Tsujita, T., Li, L., Nakajima, H., Iwamoto, N., Nakajima-Takagi, Y., Ohashi, K., Kawakami, K., Kumagai, Y., Freeman, B. A., Yamamoto, M., and Kobayashi, M. (2011) “Nitro-fatty acids and cyclopentenone prostaglandins share strategies to activate the Keap1-Nrf2 system: a study using green fluorescent protein transgenic zebrafish.” Genes Cells 16, 46-57). The fish embryos were maintained at 28.5° C. in 0.3× Danieau's solution (19.3 mM NaCl, 0.23 mM KCl, 0.13 mM MgSO4, 0.2 mM Ca(NO3)2, 1.7 mM HEPES, pH 7.0) containing 30 μg/ml phenylthiourea (PTU) to inhibit pigmentation. Tg(gstp1:GFP) cross with AB wild-type strain fluorescence embryos were used for the experiment. Zebrafish embryos were washed, dechorionated and anaesthetized before observations, and fluorescence imaging for analysis.
Transgenic zebrafish embryos at 1 day-post-fertilization (dpf) were dechorionated and placed in Petri dishes containing different chemicals diluted in 0.3× Danieau's solution containing PTU. The chemical stock was dissolved in DMSO at 5 mM concentration.
An Olympus MVX10 Fluorescence Macroscope (Olympus, Center Valley, Pa., United States of America) equipped with a Hamamatsu C9300-221 high-speed digital CCD camera (Hamamatsu City, Japan) was used for fluorescence microscopy. Tg(gstp1:GFP) fluorescent embryos were anaesthetized in tricaine and imaged at 2 dpf. MetaMorph Basic software (Olympus, Center Valley, Pa., United States of America) was used for image acquisition and analysis.
Quantification of Nrf2 Reporter Activity by Tg(gstp1:
GFP) Fluoresence in Zebrafish Model. The fluorescence intensity of the olfactory neural epithelia was quantitated using MetaMorph Basic software. In brief, GFP expression in the olfactory regions of Tg(gstp1:GFP) embryos treated with various chemicals was measured after 24-hour treatment from 1 dpf to 2 dpf. The GFP induction was detectable by fluorescence signal at the area of the olfactory epithelia in the anterior of the head region, the intensity was measured using an area of a circle of 60 pixel diameter of the fluorescence olfactory epithelia subtracted by a background non-fluorescence area next to the zebrafish embryo. Both the left and right olfactory epithelia were measured to give an average fluorescence value. The values are an average of measurements from at least 10 embryos.

[3] = tested on: human colon cancer cells HCT-116; test: MTT growth inhibition, HCT-116; format: cell-based; details: 24 hours
Description: as §1

Structure (SMILES): CCCCC/C=C/C(=O)/C=C/c1ccc(O)c(O)c1 [Compound 26]
- Cysteine conjugates found in zebrafish embryos [1]: Three conjugates 37, 37b, and 38 were detected
- IC50 [2]: 11.5 µM
- Ratio/CTL, Tg(gstp1:GFP) fluorescence signal (Nrf2): 6.96 and 6.96 ± 0.48
- IC50 [3]: 5.42 µM

Reference: patent US10342766B2, “6-shogaol derivatives and activities thereof” (North Carolina Agricultural and Technical State University, priority 2017, dated 2019)
